# Data taken from US20070190188A1, “Controlling Toxicity of Aminoquinoline Compounds” (The University of Mississippi, priority 2005, published 2007).
# Legend:
# [1] = test system: pooled human liver microsomes; assay: In vitro formation of methemoglobinemic metabolites with pooled human liver microsomes and human erythrocytes; type: cell-based
# CYP 1A2 = target: T1, CYP 1A2 (Homo sapiens, UniProt P05177); assay: Methemoglobinemic metabolite formation with Baculosomes, CYP 1A2; type: cell-based; conditions: mean ± S.D. of four
# T1 construct: purchased; host or cells: insect cells infected with recombinant baculovirus
# T1 sequence (P05177 2-516 limits assumed): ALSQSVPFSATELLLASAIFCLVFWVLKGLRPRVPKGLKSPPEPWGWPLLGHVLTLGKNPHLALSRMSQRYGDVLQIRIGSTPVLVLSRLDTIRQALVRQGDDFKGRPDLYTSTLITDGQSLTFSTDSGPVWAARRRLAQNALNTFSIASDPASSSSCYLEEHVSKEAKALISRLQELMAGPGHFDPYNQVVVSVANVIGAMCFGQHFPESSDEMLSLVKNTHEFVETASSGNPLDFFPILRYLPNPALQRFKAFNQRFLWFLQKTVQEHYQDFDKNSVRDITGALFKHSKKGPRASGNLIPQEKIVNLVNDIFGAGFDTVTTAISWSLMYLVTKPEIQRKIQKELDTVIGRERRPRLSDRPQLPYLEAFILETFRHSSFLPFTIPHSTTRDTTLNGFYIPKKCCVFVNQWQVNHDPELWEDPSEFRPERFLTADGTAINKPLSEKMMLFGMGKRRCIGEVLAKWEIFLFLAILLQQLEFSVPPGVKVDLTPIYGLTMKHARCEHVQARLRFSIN
# CYP 2D6 = target: T2, CYP 2D6 (Homo sapiens, UniProt P10635); assay: Methemoglobinemic metabolite formation with Baculosomes, CYP 2D6; type: cell-based; conditions: mean ± S.D. of four
# T2 construct: purchased; host or cells: insect cells infected with recombinant baculovirus
# T2 sequence (P10635 whole entry): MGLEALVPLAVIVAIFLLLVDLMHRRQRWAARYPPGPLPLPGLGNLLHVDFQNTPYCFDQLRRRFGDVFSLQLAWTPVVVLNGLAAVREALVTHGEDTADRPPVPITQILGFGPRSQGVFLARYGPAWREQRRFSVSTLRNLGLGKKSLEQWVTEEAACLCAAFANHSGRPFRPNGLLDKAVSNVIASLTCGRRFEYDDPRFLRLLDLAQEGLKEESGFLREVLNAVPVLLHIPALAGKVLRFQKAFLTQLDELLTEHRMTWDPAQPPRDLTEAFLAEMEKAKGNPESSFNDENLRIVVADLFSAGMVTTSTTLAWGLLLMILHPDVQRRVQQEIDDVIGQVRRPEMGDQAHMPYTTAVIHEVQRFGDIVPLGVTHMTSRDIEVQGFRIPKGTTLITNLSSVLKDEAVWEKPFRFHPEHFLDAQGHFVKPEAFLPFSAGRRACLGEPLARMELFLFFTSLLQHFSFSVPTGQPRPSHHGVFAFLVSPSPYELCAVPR
# CYP 3A4 = target: T3, CYP 3A4 (Homo sapiens, UniProt P08684); assay: Methemoglobinemic metabolite formation with Baculosomes, CYP 3A4; type: cell-based
# T3 construct: purchased; host or cells: insect cells infected with recombinant baculovirus
# T3 sequence (P08684 2-503 limits assumed): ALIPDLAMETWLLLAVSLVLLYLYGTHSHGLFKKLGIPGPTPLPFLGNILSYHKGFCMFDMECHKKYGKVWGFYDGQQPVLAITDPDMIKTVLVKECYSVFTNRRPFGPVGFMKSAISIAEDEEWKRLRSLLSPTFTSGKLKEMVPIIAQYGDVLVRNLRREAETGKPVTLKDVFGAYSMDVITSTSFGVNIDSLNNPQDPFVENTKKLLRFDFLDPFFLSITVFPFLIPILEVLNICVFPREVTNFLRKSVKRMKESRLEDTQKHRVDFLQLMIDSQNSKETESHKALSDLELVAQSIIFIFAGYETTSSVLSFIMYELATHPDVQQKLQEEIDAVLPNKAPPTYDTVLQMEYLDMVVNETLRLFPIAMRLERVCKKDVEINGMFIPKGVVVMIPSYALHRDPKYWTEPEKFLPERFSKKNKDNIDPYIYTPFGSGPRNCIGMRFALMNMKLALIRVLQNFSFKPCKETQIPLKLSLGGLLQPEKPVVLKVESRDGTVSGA
# CPY 2B6 = target: T4, CPY 2B6 (Homo sapiens, UniProt P20813); assay: Methemoglobinemic metabolite formation with Baculosomes, CYP 2B6; type: cell-based; conditions: mean ± S.D. of four
# T4 construct: purchased; host or cells: insect cells infected with recombinant baculovirus
# T4 sequence (P20813 1-491): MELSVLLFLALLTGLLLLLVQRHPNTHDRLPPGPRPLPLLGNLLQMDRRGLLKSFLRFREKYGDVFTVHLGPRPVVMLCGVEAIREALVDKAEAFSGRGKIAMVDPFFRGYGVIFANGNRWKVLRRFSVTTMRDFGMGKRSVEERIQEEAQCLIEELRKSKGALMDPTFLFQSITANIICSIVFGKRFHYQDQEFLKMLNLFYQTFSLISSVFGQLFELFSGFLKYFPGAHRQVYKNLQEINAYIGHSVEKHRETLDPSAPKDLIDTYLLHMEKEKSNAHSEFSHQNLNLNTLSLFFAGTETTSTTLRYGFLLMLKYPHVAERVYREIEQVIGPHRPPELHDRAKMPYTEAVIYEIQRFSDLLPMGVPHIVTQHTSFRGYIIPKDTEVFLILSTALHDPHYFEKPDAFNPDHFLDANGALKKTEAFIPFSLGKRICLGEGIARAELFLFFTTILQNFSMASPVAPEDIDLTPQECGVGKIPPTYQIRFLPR
# CYP 2E1 = target: T5, CYP 2E1 (Homo sapiens, UniProt P05181); assay: Methemoglobinemic metabolite formation with Baculosomes, CYP 2E1; type: cell-based; conditions: mean ± S.D. of four
# T5 construct: purchased; host or cells: insect cells infected with recombinant baculovirus
# T5 sequence (P05181 whole entry): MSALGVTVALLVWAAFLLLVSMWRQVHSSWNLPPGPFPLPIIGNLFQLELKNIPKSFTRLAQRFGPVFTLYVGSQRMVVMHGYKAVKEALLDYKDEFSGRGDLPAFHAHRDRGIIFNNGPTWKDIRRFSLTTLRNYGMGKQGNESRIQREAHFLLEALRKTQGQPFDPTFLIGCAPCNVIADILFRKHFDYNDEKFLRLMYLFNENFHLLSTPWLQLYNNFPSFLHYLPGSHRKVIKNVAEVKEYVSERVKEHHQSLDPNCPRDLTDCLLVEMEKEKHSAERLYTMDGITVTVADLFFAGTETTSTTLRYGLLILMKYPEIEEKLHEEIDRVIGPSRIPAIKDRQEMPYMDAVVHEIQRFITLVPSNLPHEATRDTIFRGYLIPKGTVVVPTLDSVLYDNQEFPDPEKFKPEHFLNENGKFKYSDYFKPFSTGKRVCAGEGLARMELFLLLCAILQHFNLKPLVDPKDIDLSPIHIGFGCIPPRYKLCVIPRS
# CYP 2C8 = target: T6, CYP 2C8 (Homo sapiens, UniProt P10632); assay: Methemoglobinemic metabolite formation with Baculosomes, CYP 2C8; type: cell-based; conditions: mean ± S.D. of four
# T6 construct: purchased; host or cells: insect cells infected with recombinant baculovirus
# T6 sequence (P10632 1-490): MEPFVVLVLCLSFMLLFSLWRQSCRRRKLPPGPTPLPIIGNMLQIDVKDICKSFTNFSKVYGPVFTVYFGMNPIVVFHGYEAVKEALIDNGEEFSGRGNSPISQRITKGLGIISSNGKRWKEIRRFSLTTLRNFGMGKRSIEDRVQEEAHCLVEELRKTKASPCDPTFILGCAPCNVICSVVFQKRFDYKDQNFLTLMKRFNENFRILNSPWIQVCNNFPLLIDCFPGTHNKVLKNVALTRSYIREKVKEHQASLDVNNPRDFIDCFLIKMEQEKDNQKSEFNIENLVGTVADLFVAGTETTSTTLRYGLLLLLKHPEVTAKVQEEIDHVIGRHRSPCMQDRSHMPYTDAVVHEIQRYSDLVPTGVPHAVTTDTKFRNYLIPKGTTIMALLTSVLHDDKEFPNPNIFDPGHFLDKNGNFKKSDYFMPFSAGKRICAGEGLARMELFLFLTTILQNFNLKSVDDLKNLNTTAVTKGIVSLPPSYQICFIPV
# CYP 2C19 = target: T7, CYP 2C19 (Homo sapiens, UniProt P33261); assay: Methemoglobinemic metabolite formation with Baculosomes, CYP 2C19; type: cell-based; conditions: mean ± S.D. of four
# T7 construct: purchased; host or cells: insect cells infected with recombinant baculovirus
# T7 sequence (P33261 whole entry): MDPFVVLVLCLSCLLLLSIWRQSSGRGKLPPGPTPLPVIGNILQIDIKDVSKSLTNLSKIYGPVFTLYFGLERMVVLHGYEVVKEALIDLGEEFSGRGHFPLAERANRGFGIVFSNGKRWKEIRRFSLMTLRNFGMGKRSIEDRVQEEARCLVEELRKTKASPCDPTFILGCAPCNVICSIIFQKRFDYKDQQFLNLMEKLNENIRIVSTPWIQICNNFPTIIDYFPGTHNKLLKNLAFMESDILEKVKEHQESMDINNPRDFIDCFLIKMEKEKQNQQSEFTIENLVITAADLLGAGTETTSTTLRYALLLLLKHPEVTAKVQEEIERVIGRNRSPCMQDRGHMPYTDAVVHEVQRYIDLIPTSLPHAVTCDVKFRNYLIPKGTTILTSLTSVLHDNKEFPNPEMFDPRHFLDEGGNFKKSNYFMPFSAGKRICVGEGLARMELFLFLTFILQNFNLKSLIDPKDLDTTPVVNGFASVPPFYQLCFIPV
# [2] = test system: individual human liver microsomes (HLM)
# Experimental: In one aspect of the present invention, an in vitro assay is developed for evaluation of biotransformation reactions leading to generation of methemoglobinemic metabolites of 8-aminoquinolines. This method uses simultaneous incubation of a test compound with the hepatic microsomes or Baculosomes® (microsomes prepared from insect cells infected with recombinant baculovirus containing a cDNA insert for a specific human P450 isozyme and NADPH-P450 reductase) and human erythrocytes followed by determination of methemoglobin formation. This allows the unstable metabolites generated in situ to react with the human erythrocytes.
# For Correlation analysis six different lots of individual human liver microsomes (HLM) were obtained from BD biosciences (www.gentest.com ) with good variations in CYP3A4 activity (Testosterone 6β-hydroxylase activity ranging from 700-12,000 pmol/mg protein). […] Donor information, genotypes, immunoquantitation was provided along with the characterization table, with different cytochrome P450 assays conducted with NADPH regenerating system, MgCl2 and 0.1M potassium phosphate buffer.
smiles,measurement,setting,value
COc1cc(N[C@H](C)CCCN)c2nccc(C)c2c1Oc1ccc(Cl)c(Cl)c1 [NPC1161B],methemoglobin toxicity compared with primaquine and NPC 1161A,"[1]; FIGS. 1 and 2, Table 1",significantly reduced methemoglobin toxicity
same,"% methemoglobin formation, Pooled Human liver Microsomes","[1]; drug 100 μM, microsomes equivalent to 25 pmoles cytochrome P450, Mean ± S.D. of four",7.455 ± 0.879%
same,"formation of methemoglobenemic metabolites, Azithromycin","[1]; pooled human Liver Microsomes, 8-aminoquinoline with Azithromycin",7.565 ± 1.276
same,"formation of methemoglobenemic metabolites, Erythromycin","[1]; pooled human Liver Microsomes, 8-aminoquinoline with Erythromycin",0
same,"formation of methemoglobenemic metabolites, Microsomes","[1]; pooled human Liver Microsomes, no macrolide",7.697 ± 1.392
same,methemoglobin toxicity with macrolide antibiotics troleandomycin and erythromycin,"[1]; pooled human liver microsomes, FIG. 7 and 8",almost completely abolished
same,"% methemoglobin formed, CYP 1A2",CYP 1A2,0.00%
same,"% methemoglobin formed, CYP 2D6",CYP 2D6,5.380 ± 1.402%
same,"% methemoglobin formed, Cimetidine","CYP 3A4; 3A4 Baculosomes, 8-aminoquinoline 100 μM with Cimetidine 100 μM",8.567 ± 0.600%
same,"% methemoglobin formed, Erythromycin","CYP 3A4; 3A4 Baculosomes, 8-aminoquinoline 100 μM with Erythromycin 100 μM",11.655 ± 1.818%
same,"% methemoglobin formed, Ketoconazole","CYP 3A4; 3A4 Baculosomes, 8-aminoquinoline 100 μM with Ketoconazole 100 μM",9.615 ± 1.552%
same,"% methemoglobin formed, Troleandomycin","CYP 3A4; 3A4 Baculosomes, 8-aminoquinoline 100 μM with Troleandomycin 100 μM",2.785 ± 0.628%
same,"% methemoglobin formed, inhibitor None","CYP 3A4; 3A4 Baculosomes, 8-aminoquinoline 100 μM, no inhibitor",18.185 ± 2.809%
same,"% methemoglobin formed, CYP 3A4","CYP 3A4; Baculosomes, mean ± S.D. of four",15.280 ± 1.077%
same,CYP responsible for metabolism,"CYP 3A4; FIG. 4, Table 2",primarily metabolized by CYP 3A4
same,"methemoglobin toxicity generated by CYP 3A4, comparison among the three 8-aminoquinolines",CYP 3A4; FIG. 5,almost similar methemoglobin toxicity
same,"% methemoglobin formed, CPY 2B6",CPY 2B6,2.855 ± 0.419%
same,"% methemoglobin formed, CYP 2E1",CYP 2E1,3.801 ± 1.996%
same,"% methemoglobin formed, CYP 2C8",CYP 2C8,1.353 ± 0.791%
same,"% methemoglobin formed, CYP 2C19",CYP 2C19,3.870 ± 0.577%
same,"R value, linear correlation between % methemoglobin formation and CYP3A4 Content of HLM preparation",[2],> 0.9
same,correlation of methemoglobin toxicity with CYP 2D6 or CYP2E1 contents of HLM preparations,[2],did not correlate
